Reference: paper PMC7767178 (International Journal of Molecular Sciences, 2020)
“And” between values parts separate entries of the source, which are not always exact repeats. Equal entries are not always repeated. Where two headings read alike, the source gives them in different places. Positions of bridges follow the written chain, without caps; N, C: chain ends. Residues, ends and D or L forms follow the SMILES beside them.

Tests used:
[1] = tested on: A. veronii X-1-06909; assay: microbe, parasite or virus in culture; assay type: cell-based
From the text: (§1) All experiments were repeated three times.

[2] = tested on: Candida albicans CMCC98001; assay: microbe, parasite or virus in culture; assay type: cell-based; conditions: CMCC98001; read-out: MIC
From the text: as §1

[3] = tested on: E. coli CVCC1515; assay: microbe, parasite or virus in culture; assay type: cell-based
From the text: as §1

[4] = tested on: E. coli CVCC25922; assay: microbe, parasite or virus in culture; assay type: cell-based; conditions: E. coli CVCC25922, broth dilution, 37 °C, 16–18 h, three experiments
From the text: as §1

[5] = tested on: Escherichia coli CVCC195; assay: microbe, parasite or virus in culture; assay type: cell-based; conditions: Escherichia coli CVCC195, broth dilution, 37 °C, 16–18 h, three experiments
From the text: as §1

[6] = tested on: S. enteritidis CVCC3377; assay: microbe, parasite or virus in culture; assay type: cell-based
From the text: as §1

[7] = tested on: S. pullorum CVCC1789; assay: microbe, parasite or virus in culture; assay type: cell-based
From the text: as §1

[8] = tested on: S. pullorum CVCC1809; assay: microbe, parasite or virus in culture; assay type: cell-based; conditions: S. pullorum CVCC1809, broth dilution, 37 °C, 16–18 h, three experiments
From the text: as §1

[9] = tested on: S. pullorum CVCC533; assay: microbe, parasite or virus in culture; assay type: cell-based
From the text: as §1

[10] = tested on: Staphylococcus aureus ATCC43300; assay: microbe, parasite or virus in culture; assay type: cell-based
From the text: as §1

[11] = tested on: E. coli CVCCO157; assay: MIC, microtiter broth dilution; assay type: cell-based; conditions: 37 °C, 16–18 h, three experiments
From the text: as §1

[12] = tested on: S. hyicus 437-2; assay type: cell-based
[13] = tested on: A. veronii ACCC61732; assay: Time-killing curves; assay type: cell-based; conditions: 2× MIC; 1 × 10^5 CFU/mL, colony counting, 0–24 h
Method: Time-killing curves were performed as previously described. […] The sample of 100 μL was taken from each flask at 0, 0.5, 1, 2, 4, 6, 8, 10, 20, and 24 h, respectively, and serially diluted for colony counting. PBS and CIP were used as the negative and positive control, respectively.

[14] = tested on: A. veronii ACCC61732; assay: Post-antibiotic effect (PAE); assay type: cell-based; conditions: for PAE: 2 h exposure, 1000-fold dilution, 37 °C, triplicate; for PAEs, range over 1×–4× MIC: 1× to 4× MIC
Method: The samples were taken from flasks for counting each hour until bacterial cultures became turbid. The untreated bacteria severed as controls. The PAE was calculated using the following equation: PAE = T − C, where T is the time (h) required for the CFU in the test culture to increase by 10-fold from the count immediately after the drug removal and C is the corresponding time (h) for the control. The experiment was performed in triplicate.

[15] = tested on: A. veronii ACCC61732; assay: Resistance development, 30 serial passages; assay type: cell-based; conditions: A. veronii ACCC61732, 30 passages (30 days)
Method: The development of bacterial resistance of peptides was performed by the MIC assays. […] GEN, CIP, and PMB were used as controls. […] The MIC values were measured as described above. The serial passaging was repeated for 30 days.

[16] = tested on: A. veronii ACCC61732; assay: Inner membrane permeability, PI staining, flow cytometry; assay type: cell-based
Method: To analyze effects of peptides on the inner membrane, A. veronii ACCC61732 cells were cultured to mid-log phase at 37 °C in MHB medium, washed thrice with PBS, and resuspended in the PBS buffer to 1 × 10^8 CFU/mL. […] After fixation with PI, the samples were detected by a fluorescent inverted microscope and FACS Calibur Flow Cytometer (BD, San Jose, CA, USA), respectively. Cell Quest Pro software (BD, San Jose, CA, USA) was used for the data analysis.

[17] = tested on: A. veronii ACCC61732 in biofilm; assay type: cell-based; conditions: 2 h
Method: The mid-log phase A. veronii ACCC61732 cells (1 × 10^8 CFU/mL) were inoculated into in the 96-well plates and cultured for 24 h at 37 °C. The plates were washed twice with PBS. […] PBS was used as the negative control. The plates were treated with ultrasound for 5 min and the viable bacteria were counted on the TSA plates.

[18] = tested on: IL-10; assay: Serum cytokine, ELISA, peritonitis model; assay type: in vivo; conditions: 5 μmol/kg, 24 h after treatment, range over mice
Method: (§2) Sera and organs (livers, kidneys, spleens, and lungs) were collected from the mice at 24 h post-treatment. The organs were homogenized in sterile PBS to evaluate bacterial translocation by colony counting. The levels of cytokines (TNF-α, IL-1β, IL-6, and IL-10) in sera were detected using the ELISA kits.

[19] = tested on: IL-1β; assay: Serum cytokine, ELISA, peritonitis model; assay type: in vivo; conditions: 5 μmol/kg, 24 h after treatment, range over mice
Method: as §2

[20] = tested on: IL-6; assay: Serum cytokine, ELISA, peritonitis model; assay type: in vivo; conditions: 5 μmol/kg, 24 h after treatment, range over mice
Method: as §2

[21] = tested on: TNF-α; assay: Serum cytokine, ELISA, peritonitis model; assay type: in vivo; conditions: 5 μmol/kg, 24 h after treatment, range over mice
Method: as §2

[22] = tested on: A. veronii; assay: MIC, range over strains; assay type: cell-based; conditions: range over the strains of Table 2
From the text: as §1

[23] = tested on: Escherichia coli; assay: MIC, range over strains; assay type: cell-based; conditions: range over the strains of Table 2
From the text: as §1

[24] = A. veronii X-1-06909, broth dilution, 37 °C, 16–18 h, three experiments
[25] = E. coli CVCC1515, broth dilution, 37 °C, 16–18 h, three experiments
[26] = S. enteritidis CVCC3377, broth dilution, 37 °C, 16–18 h, three experiments
[27] = S. pullorum CVCC1789, broth dilution, 37 °C, 16–18 h, three experiments
[28] = S. pullorum CVCC533, broth dilution, 37 °C, 16–18 h, three experiments
[29] = Staphylococcus aureus ATCC43300, broth dilution, 37 °C, 16–18 h, three experiments
[30] = S. hyicus 437-2 (clinical isolate, pig farm), broth dilution, 37 °C, 16–18 h, three experiments

SMILES | MIC [1, 24] | MIC ([1]; read-out: MIC) | MIC [2] | MIC ([3]; CVCC1515, read-out: MIC) | MIC [3, 25] | MIC [4] | MIC [5] | MIC ([6]; CVCC3377, read-out: MIC) | MIC [6, 26] | MIC ([7]; CVCC1789, read-out: MIC) | MIC [7, 27] | MIC [8] | MIC [9, 28] | MIC [10, 29] | MIC [11] | MIC [12, 30] | time to completely kill A. veronii ACCC61732 [13] | PAE ([14]; 1× MIC) | PAEs, range over 1×–4× MIC [14] | PAE ([14]; 2× MIC) | other results
CC(C)[C@@H]1NC(=O)CNC(=O)[C@H](CC(N)=O)NC(=O)[C@H](CCCNC(=N)N)NC(=O)[C@H](Cc2ccc(O)cc2)NC(=O)[C@H](C(C)C)NC(=O)[C@@H](NC(=O)[C@@H](NC(=O)[C@H](CC(N)=O)NC(=O)[C@H](Cc2c[nH]c3ccccc23)NC(=O)[C@H](C)NC(=O)[C@H](Cc2ccccc2)NC(=O)CN)C(C)C)CSSC[C@@H](C(=O)N[C@@H](Cc2cnc[nH]2)C(=O)N[C@@H](CCCNC(=N)N)C(=O)N[C@@H](CCCNC(=N)N)C(=O)N[C@@H](C)C(=O)N[C@@H](CC(N)=O)C(N)=O)NC(=O)[C@H](C(C)C)NC(=O)[C@H](CCCNC(=N)N)NC1=O [N6NH2] | 32 µg/mL | 12.9 µM | >52 µM | 0.81 µM | 2 µg/mL | 4 µg/mL | 4 µg/mL | 0.81 µM | 2 µg/mL | 3.23 µM | 8 µg/mL | 4 µg/mL | 4 µg/mL | 16 µg/mL | 4 µg/mL | 32 µg/mL | 8 h | 0.69 ± 0.01 h | 0.69 to 1.17 h | 0.7 ± 0.01 h | MIC ([10]; ATCC43300, read-out: MIC): 6.46 µM; MIC [12]: 12.9 µM; PAE ([14]; 4× MIC): 1.17 ± 0.22 h; increase of MIC after 30 serial passages [15]: one-fold; Permeability (PI-positive cells) ([16]; 1× MIC, 0.5 h): 0%; Permeability (PI-positive cells) ([16]; 1× MIC, 2 h): 1.39%; Permeability (PI-positive cells) ([16]; 2× MIC, 0.5 h): 0%; Permeability (PI-positive cells) ([16]; 2× MIC, 2 h): 1.49%; bacteria in biofilm killed [17]; 8: 65.49%; bacteria in biofilm killed [17]; 16: 75.36%; serum level of IL-10 [18]: 17.02 to 20.87 pg/mL; serum level of IL-1β [19]: 6.06 to 10.82 pg/mL; serum level of IL-6 [20]: 47.22 to 108.59 pg/mL; serum level of TNF-α [21]: 40.65 to 55.67 pg/mL
CC(C)[C@@H]1NC(=O)CNC(=O)[C@H](CC(N)=O)NC(=O)[C@H](CCCNC(=N)N)NC(=O)[C@H](Cc2ccc(O)cc2)NC(=O)[C@H](C(C)C)NC(=O)[C@@H](NC(=O)[C@@H](NC(=O)[C@H](CC(N)=O)NC(=O)[C@H](Cc2c[nH]c3ccccc23)NC(=O)[C@H](C)NC(=O)[C@H](Cc2ccccc2)NC(=O)CN)C(C)C)CSSC[C@@H](C(=O)N[C@@H](Cc2c[nH]cn2)C(=O)N[C@@H](CCCNC(=N)N)C(=O)N2CCC[C@H]2C(=O)N[C@@H](C)C(=O)N[C@@H](CC(N)=O)C(N)=O)NC(=O)[C@H](C(C)C)NC(=O)[C@H](CCCNC(=N)N)NC1=O [N6PNH2] (H-GFAWNVCVYRNGVRVCHRPAN-NH2; disulfide 7-16 (inferred)) | 64 µg/mL | 26.49 µM | >52.98 µM | 1.66 µM | 4 µg/mL | 8 µg/mL | 8 µg/mL | 0.83 µM | 2 µg/mL | 6.62 µM | 16 µg/mL | 8 µg/mL | 32 µg/mL | >64 µg/mL | 8 µg/mL | >64 µg/mL | 2 h | 0.52 ± 0.01 h | 0.52 to 0.68 h | 0.62 ± 0.01 h | MIC ([4]; read-out: MIC): 3.31 µM; MIC ([5]; read-out: MIC): 3.31 µM; MIC ([8]; read-out: MIC): 3.31 µM; MIC ([9]; CVCC533, read-out: MIC): 13.25 µM; MIC ([11]; read-out: MIC): 3.31 µM; MIC values against A. veronii [22]: 6.62 to 26.49 µM; MIC values against Escherichia coli [23]: 1.66 to 3.31 µM; PAE ([14]; 4× MIC): 0.68 h and 0.68 ± 0.01 h; increase of MIC after 30 serial passages [15]: three-fold; Permeability (PI-positive cells) ([16]; 1× MIC, 0.5 h): 0%; Permeability (PI-positive cells) ([16]; 1× MIC, 2 h): 2.11%; Permeability (PI-positive cells) ([16]; 2× MIC, 0.5 h): 0.68%; Permeability (PI-positive cells) ([16]; 2× MIC, 2 h): 1.35%; Permeability (PI-positive cells) ([16]; 4× MIC, 0.5 h): 0%; Permeability (PI-positive cells) ([16]; 4× MIC, 2 h): 1.23%; bacteria in biofilm killed [17]; 8: 57.99%; bacteria in biofilm killed [17]; 16: 67.44%; serum level of IL-10 [18]: no discrepancy of IL-10 levels
